Reference: US9156822B2, “Functionally selective ligands of dopamine D2 receptors” (The University of North Carolina at Chapel Hill, priority 2010, dated 2015)
Entries after “also recorded” stand apart in the source; their conditions may differ. Where two headings read alike, the source gives them in different places.

What was measured:
5HT2C [1] = target: T1, 5HT2C (Homo sapiens (Human), UniProt P28335); experiment: 5HT2C FLIPR (Ca2+ mobilization); format: cell-based
H1-histamine receptor = H1-histamine receptor (Homo sapiens (Human), UniProt P35367); experiment: H1 binding
5HT2C [2] = target: T1, 5HT2C; details: read-out: 5HT2C/binding (Ki)
5HT1A [3] = target: T2, 5HT1A (Homo sapiens (Human), UniProt P08908); experiment: 5HT1A binding
5HT2A [4] = target: T3, 5HT2A (Homo sapiens (Human), UniProt P28223); experiment: 5HT2A FLIPR (Ca2+ mobilization); format: cell-based
5HT2B [5] = target: T4, 5HT2B (Homo sapiens (Human), UniProt P41595); details: read-out: 5HT2B/binding (Ki)
5HT2B [6] = target: T4, 5HT2B; experiment: biochemical
5HT1A [7] = target: T2, 5HT1A; experiment: 5HT1A cAMP biosensor; format: cell-based
5HT2C [8] = target: T1, 5HT2C; experiment: biochemical
5HT2B [9] = target: T4, 5HT2B; experiment: cell-based
[10] = tested on: wild-type and β-arrestin-2 knockout mice; details: i.p., 5.0 mg/kg (haloperidol 2.0 mg/kg), 30 and 60 min
5HT2B [11] = target: T4, 5HT2B
[12] = mouse
D4 dopamine receptor = D4 dopamine receptor (Homo sapiens (Human), UniProt P21917); details: read-out: D4/binding (Ki)
D2 receptors [13] = target: T5, D2 receptors (Homo sapiens (Human), UniProt P14416); experiment: D2 β-arrestin recruitment (Tango) assay; format: cell-based
Experimental: The next day, cells were plated in white, clear-bottom, 384-well plates (Greiner, 10,000 cells/well, 50 μl/well) in DMEM containing 1% dialyzed fetal bovine serum. […] Data were normalized to vehicle (0%) and quinpirole (100%) controls and regressed using the sigmoidal dose-response function built into GraphPad Prism 4.0.
Target sequence in this assay (P14416 whole entry, looked up): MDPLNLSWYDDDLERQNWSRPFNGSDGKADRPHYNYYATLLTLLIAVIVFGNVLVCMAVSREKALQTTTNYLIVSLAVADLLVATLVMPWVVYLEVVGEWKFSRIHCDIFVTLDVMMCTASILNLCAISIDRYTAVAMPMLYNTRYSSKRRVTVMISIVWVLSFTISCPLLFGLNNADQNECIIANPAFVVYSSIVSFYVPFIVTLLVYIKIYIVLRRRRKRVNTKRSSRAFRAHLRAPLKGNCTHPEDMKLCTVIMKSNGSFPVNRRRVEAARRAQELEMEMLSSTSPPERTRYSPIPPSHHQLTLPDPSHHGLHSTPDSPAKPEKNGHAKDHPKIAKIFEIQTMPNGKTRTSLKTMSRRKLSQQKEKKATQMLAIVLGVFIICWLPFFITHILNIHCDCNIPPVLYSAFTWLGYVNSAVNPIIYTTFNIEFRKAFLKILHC

D1 dopamine receptor = D1 dopamine receptor (Homo sapiens (Human), UniProt P21728); details: read-out: D1/binding (Ki)
hD2L dopamine receptor = hD2L dopamine receptor (Homo sapiens (Human), UniProt P14416); experiment: pERK high-content assay; format: cell-based; details: for Emax: normalized to dopamine, read-out: p-ERK Emax
Experimental: On day 1 of the assay, cells were seeded onto black clear-bottom tissue culture-treated 96-well plates (Greiner, BioOne). On day 2 of the assay, cells were washed with serum-free medium (Ham's F-12, penicillin and streptomycin) and incubated in 100 μL serum-free medium overnight.
Immunofluorescence: Automatic multichannel pipetters were used for liquid handling and multichannel vacuum manifolds for aspirations. Each tested concentration was typically measured in triplicate or quadruplicate. For concentration curves, half-log-dilutions were used. Drug dilutions were prepared in stimulation medium (serum-free medium, 100 mg/L ascorbic acid). 100 μM dopamine and 1 μM PMA (phorbol 12-myristate 13-acetate) were used as positive controls. Medium only was used as a negative control. Specificity of the response was confirmed by pretreatment for 5 min with 10 μM of the antagonist spiperone and in experiments using wild type CHO cells.
Cells were stimulated on day 3 by fast addition of 50 μL equilibrated 3× drug dilutions in a tissue culture incubator for 5 min. Plates were placed on ice, the medium was aspirated, and 100 μL/well of freshly prepared ice-cold fixing buffer (4% formaldehyde and 0.5 mM CaCl2 in PBS) solution was added. After 30 min fixing at room temperature, the plates were washed with 350 μL/well PBS/Ca (0.5 mM CaCl2 in PBS) and permeabilized for 20 min in 100 μL/well 0.3% Triton X-100 in PBS/Ca. […] Plates were washed three times with 250 μL/well washing buffer, post-fixed for 10 min in fixing buffer, washed with 250 μl PBS/Ca, filled with 200 μL/well PBS/Ca, sealed with transparent adhesive plate seals, and stored at 4° C.
The Alexa594 light path was used for the target signal, Alexa488 for whole cell staining, and Hoechst for the nuclear staining. Images were analyzed using the CellProfiler software. […] Concentration curves were analyzed in GraphPad Prism by fitting against a sigmoidal dose-response model and normalization to the dopamine curve.

D3-dopamine receptor = D3-dopamine receptor (Homo sapiens (Human), UniProt P35462); details: read-out: D3/binding (Ki)
D5 dopamine receptor = D5 dopamine receptor (Homo sapiens (Human), UniProt P21918); details: read-out: D5/binding (Ki)
in vivo = details: mouse
C57BL/6 mice = details: i.p., 3 mg/kg D-amphetamine
5HT2A [14] = target: T3, 5HT2A; details: read-out: 5HT2A/binding (Ki)
hD2 receptors = hD2 receptors (Homo sapiens (Human), UniProt P14416); experiment: D2 mediated cAMP GloSensor assay; format: cell-based; on cAMP (GloSensor) activity in words (merged EC50/Emax cell): key: neutral: Neutral ligands are either antagonists or are inactive
D2 receptors [15] = target: T5, D2 receptors; experiment: CHO-D2 radioligand binding assay ([3H]N-methylspiperone competition)
Target sequence in this assay (P14416 whole entry): as the sequence (P14416 whole entry, looked up) above

[16] = tested on: wild-type and β-arrestin-2 knockout mice; details: i.p., 6 mg/kg PCP
5HT2A [17] = target: T3, 5HT2A; experiment: biochemical
[18] = normalized to quinpirole (100%)

Sequence of hD2 receptors (P14416 whole entry): as the sequence (P14416 whole entry, looked up) above
Sequence of hD2L dopamine receptor (P14416 whole entry): as the sequence (P14416 whole entry, looked up) above
T4 sequence (P41595 whole entry, species assumed): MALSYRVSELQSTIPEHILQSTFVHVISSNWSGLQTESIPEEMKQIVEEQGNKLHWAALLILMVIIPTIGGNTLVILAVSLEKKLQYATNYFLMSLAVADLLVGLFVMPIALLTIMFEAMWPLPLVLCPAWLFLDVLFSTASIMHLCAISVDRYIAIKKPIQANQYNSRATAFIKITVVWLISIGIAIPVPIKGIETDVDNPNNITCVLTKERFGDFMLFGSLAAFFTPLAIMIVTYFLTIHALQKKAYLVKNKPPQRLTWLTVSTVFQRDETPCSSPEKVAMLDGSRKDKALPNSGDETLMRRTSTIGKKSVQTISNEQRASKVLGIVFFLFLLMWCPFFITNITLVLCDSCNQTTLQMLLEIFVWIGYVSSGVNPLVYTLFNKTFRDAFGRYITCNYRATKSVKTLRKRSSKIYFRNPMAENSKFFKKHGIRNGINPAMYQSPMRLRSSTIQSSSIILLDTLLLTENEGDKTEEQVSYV
T1 sequence (P28335 33-458, species assumed): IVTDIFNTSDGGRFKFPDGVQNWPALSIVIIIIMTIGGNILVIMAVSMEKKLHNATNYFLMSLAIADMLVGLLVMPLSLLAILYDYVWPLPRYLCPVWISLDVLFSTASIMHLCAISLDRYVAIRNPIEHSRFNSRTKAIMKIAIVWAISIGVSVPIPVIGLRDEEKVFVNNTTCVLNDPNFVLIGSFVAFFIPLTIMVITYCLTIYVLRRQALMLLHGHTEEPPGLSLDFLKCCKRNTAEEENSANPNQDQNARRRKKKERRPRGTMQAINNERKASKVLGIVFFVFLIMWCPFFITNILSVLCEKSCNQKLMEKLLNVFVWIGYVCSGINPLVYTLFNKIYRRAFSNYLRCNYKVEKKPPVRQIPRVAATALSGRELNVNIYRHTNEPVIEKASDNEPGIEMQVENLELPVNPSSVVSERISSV
Sequence of H1-histamine receptor (P35367 whole entry): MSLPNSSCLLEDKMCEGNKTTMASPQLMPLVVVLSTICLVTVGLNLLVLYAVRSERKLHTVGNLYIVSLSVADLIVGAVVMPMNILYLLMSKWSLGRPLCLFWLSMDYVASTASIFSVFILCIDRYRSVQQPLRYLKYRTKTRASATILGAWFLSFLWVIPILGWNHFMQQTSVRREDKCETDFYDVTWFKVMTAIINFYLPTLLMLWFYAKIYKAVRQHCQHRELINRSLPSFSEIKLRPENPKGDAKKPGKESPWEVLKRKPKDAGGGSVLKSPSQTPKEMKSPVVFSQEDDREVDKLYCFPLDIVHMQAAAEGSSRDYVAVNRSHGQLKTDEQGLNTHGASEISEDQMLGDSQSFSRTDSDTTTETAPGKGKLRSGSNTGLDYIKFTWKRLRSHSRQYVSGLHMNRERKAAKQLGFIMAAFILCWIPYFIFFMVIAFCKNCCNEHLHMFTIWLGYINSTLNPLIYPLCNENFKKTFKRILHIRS
Sequence of D5 dopamine receptor (P21918 whole entry): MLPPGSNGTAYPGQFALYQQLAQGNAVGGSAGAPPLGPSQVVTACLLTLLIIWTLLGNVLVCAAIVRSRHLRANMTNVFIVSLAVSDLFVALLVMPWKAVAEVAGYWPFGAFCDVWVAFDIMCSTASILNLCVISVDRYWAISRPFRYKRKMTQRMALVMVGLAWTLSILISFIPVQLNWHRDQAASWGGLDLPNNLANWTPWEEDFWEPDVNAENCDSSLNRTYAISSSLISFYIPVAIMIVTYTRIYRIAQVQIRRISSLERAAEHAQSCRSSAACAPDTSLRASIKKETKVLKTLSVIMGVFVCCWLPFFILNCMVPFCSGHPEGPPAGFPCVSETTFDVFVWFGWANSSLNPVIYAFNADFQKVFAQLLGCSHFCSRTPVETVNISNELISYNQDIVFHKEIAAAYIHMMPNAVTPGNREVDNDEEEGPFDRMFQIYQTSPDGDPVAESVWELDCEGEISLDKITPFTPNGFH
Sequence of D3-dopamine receptor (P35462 whole entry): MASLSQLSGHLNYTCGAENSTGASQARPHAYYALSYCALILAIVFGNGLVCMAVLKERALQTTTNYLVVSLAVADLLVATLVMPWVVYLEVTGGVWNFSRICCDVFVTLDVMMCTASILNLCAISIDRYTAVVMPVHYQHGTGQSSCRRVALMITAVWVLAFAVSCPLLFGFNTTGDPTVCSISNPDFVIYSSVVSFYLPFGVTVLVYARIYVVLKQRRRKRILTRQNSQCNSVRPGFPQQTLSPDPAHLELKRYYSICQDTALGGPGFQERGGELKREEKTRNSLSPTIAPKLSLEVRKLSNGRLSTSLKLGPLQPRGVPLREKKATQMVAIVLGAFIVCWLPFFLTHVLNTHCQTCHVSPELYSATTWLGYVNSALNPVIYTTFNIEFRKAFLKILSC
Sequence of D1 dopamine receptor (P21728 whole entry): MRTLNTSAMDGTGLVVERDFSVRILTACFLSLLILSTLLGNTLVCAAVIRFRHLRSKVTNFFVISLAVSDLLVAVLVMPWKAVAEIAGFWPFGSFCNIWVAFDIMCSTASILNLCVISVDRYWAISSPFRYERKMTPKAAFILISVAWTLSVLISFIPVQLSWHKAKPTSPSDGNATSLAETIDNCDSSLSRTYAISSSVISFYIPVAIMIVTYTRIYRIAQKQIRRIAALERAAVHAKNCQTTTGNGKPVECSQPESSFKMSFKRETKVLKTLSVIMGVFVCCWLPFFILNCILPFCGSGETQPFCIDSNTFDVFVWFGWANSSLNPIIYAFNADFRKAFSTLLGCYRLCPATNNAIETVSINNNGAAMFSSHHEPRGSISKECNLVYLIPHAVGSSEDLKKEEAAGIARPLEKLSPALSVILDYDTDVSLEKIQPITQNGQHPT
Sequence of D4 dopamine receptor (P21917 whole entry): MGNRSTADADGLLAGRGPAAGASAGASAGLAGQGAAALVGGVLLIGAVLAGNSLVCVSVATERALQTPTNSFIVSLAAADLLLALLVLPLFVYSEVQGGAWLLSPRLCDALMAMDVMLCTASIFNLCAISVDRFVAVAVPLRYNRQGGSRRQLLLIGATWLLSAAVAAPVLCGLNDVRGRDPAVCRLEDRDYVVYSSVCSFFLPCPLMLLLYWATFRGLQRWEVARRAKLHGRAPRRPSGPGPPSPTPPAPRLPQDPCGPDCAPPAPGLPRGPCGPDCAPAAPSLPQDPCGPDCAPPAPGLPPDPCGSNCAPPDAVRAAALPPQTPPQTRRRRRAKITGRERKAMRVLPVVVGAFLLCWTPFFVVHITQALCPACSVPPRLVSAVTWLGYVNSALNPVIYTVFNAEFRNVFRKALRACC

O=C1CCc2ccc(OCCCCN3CCCN(c4cccc(Cl)c4Cl)CC3)cc2N1 [Compound 2, 7-(4-(4-(2,3-dichlorophenyl)-1,4-diazepan-1-yl)butoxy)-3,4-dihydroquinolin-2(1H)-one]
IC50 (5HT2C [1]): 3600 nM
functional mode at 5HT2C (5HT2C [1]): antagonists
Ki (H1-histamine receptor): 4.5 nM
Ki (5HT2C [2]): 115 nM
Ki (5HT1A [3]): 0.6 to 250 nM
Ki (5HT1A [3]; read-out: 5HT1A/binding (Ki)): 60 nM
functional mode at 5HT2A (5HT2A [4]): antagonists
Ki (5HT2B [5]): 0.6 nM
Ki (5HT2B [6]): 0.6 to 250 nM
EC50 (5HT1A [7]): > 1000 nM
EC50 (5HT1A [7]; read-out: 5HT1A/cAMP (EC50)): 2500 nM
Ki (5HT2C [8]): 0.6 to 250 nM
IC50 (5HT2B [9]): 115 nM
catalepsy (latency to move, inclined screen test) ([10]; wild-type mice, listed as UNC0006): do not induce catalepsy
catalepsy (latency to move, inclined screen test) ([10]; β-arrestin-2 knockout mice, listed as UNC0006): induced catalepsy; also recorded: inducing catalepsy
functional mode at 5HT2B (5HT2B [11]): antagonists

O=C1CCc2ccc(OCCCCN3CCCN(c4cccc(Cl)c4Cl)CC3)nc2N1 [Compound 3, 7-(4-(4-(2,3-dichlorophenyl)-1,4-diazepan-1-yl)butoxy)-3,4-dihydro-1,8-naphthyridin-2(1H)-one]
brain exposure level, fold lower compared to aripiprazole [12]: about 3 fold
Brain/Plasma Ratio ([12]; 0.08 h): 0.57 mL/g
Brain/Plasma Ratio ([12]; 0.5 h): 1.12 mL/g
Brain/Plasma Ratio ([12]; 1 h): 1.29 mL/g
Brain/Plasma Ratio ([12]; 2 h): 3.67 mL/g
Brain/Plasma Ratio ([12]; 4 h): 12.26 mL/g
Brain/Plasma Ratio ([12]; […]): 0.80 mL/g
Ki (D4 dopamine receptor): 178 nM
functional mode at 5HT2C (5HT2C [1]): antagonists
IC50 (5HT2C [1]; read-out: 5HT2C/FLIPR (IC50)): 2200 nM
Ki (H1-histamine receptor): 6.1 nM
β-arrestin (Tango) % activ at 1 μM (D2 receptors [13]): 11%
EC50 (D2 receptors [13]; HTLA cells, read-out: β-arrestin (Tango) EC50): 3.3 nM
Emax (D2 receptors [13]; [18]): 44%
Ki (5HT2C [2]): 99 nM
Ki (5HT1A [3]; read-out: 5HT1A/binding (Ki)): 29 nM
Ki (D1 dopamine receptor): 1040 nM
Emax (hD2L dopamine receptor): < 5%
IC50 (5HT2A [4]): 660 nM
functional mode at 5HT2A (5HT2A [4]): antagonists
Ki (D3-dopamine receptor): 11 nM
Ki (D5 dopamine receptor): 513 nM
AUC(0-inf) (in vivo; brain): 329 ng·h/mL
AUC(0-t) (in vivo; brain): 267 ng·h/mL
Cmax (in vivo; brain): 49.8 ng/mL
Tmax (in vivo; brain): 15 min
concentration at 0.08 h (in vivo; brain): 37.8 ng/g
concentration at 0.5 h (in vivo; brain): 27.2 ng/g
concentration at 1 h (in vivo; brain): 31.2 ng/g
concentration at 2 h (in vivo; brain): 23 ng/g
concentration at 4 h (in vivo; brain): 16.9 ng/g
concentration at 8 h (in vivo; brain): 9.9 ng/g
concentration at 24 h (in vivo; brain): 4.2 ng/g
half-life (in vivo; brain): 636 min
AUC(0-inf) (in vivo; plasma): 61.5 ng·h/mL
AUC(0-t) (in vivo; plasma): 59.9 ng·h/mL
Cmax (in vivo; plasma): 70.6 ng/mL
Tmax (in vivo; plasma): 4.8 min
concentration at 0.08 h (in vivo; plasma): 70.6 ng/mL
concentration at 0.5 h (in vivo; plasma): 23.7 ng/mL
concentration at 1 h (in vivo; plasma): 24.6 ng/mL
concentration at 2 h (in vivo; plasma): 6.3 ng/mL
concentration at 4 h (in vivo; plasma): 1.4 ng/mL
concentration at 8 h (in vivo; plasma): 0 ng/mL
concentration at 24 h (in vivo; plasma): 0 ng/mL
half-life (in vivo; plasma): 48.6 min
Ki (5HT2B [5]): 1.1 nM
Ki (5HT2B [6]): 0.6 to 250 nM
antipsychotic-like activity in D-amphetamine-induced hyperlocomotion (C57BL/6 mice): potent antipsychotic-like activity
Ki (5HT2A [14]): 7.4 nM
EC50 (5HT1A [7]; read-out: 5HT1A/cAMP (EC50)): 1800 nM
EC50 (5HT1A [7]; text bound, read-out: 5HT1A EC50 (weak agonists)): > 1000 nM
EC50 (hD2 receptors): 13 nM
Emax (hD2 receptors; read-out: cAMP (GloSensor) Emax): -94%
Ki (5HT2C [8]): 0.6 to 250 nM
Ki (D2 receptors [15]; Table 7, read-out: D2/binding (Ki)): < 10 nM
Ki (D2 receptors [15]; read-out: D2/binding (Ki)): 2.6 nM
Ki (D2 receptors [15]; read-out: D2 Binding Ki ± SEM): 1.2 ± 0.1 nM
antipsychotic-like activity in PCP-induced hyperlocomotion ([16]; wild-type mice): potent antipsychotic-like activity
antipsychotic-like activity in PCP-induced hyperlocomotion ([16]; β-arrestin-2 knockout mice): attenuated
IC50 (5HT2B [9]): 76 nM
catalepsy (latency to move, inclined screen test) ([10]; wild-type mice, listed as UNC9975): do not induce catalepsy
catalepsy (latency to move, inclined screen test) ([10]; β-arrestin-2 knockout mice, listed as UNC9975): induced catalepsy; also recorded: inducing catalepsy
Ki (5HT2A [17]): 0.6 to 250 nM
functional mode at 5HT2B (5HT2B [11]): antagonists

Clc1cccc(C2CCN(CCCOc3ccc4scnc4c3)CC2)c1Cl [Compound 22, 5-(3-(4-(2,3-dichlorophenyl)piperidin-1-yl)propoxy)benzo[d]thiazole]
EC50 (D2 receptors [13]): 51 nM
β-arrestin (Tango) % activ at 1 μM (D2 receptors [13]): 59%
β-arrestin (Tango) Emax (D2 receptors [13]; [18]): 100%
EC50 (hD2L dopamine receptor; CHO-hD2L cells, read-out: p-ERK EC50): 58 nM
Emax (hD2L dopamine receptor): 50%
cAMP (GloSensor) activity in words (merged EC50/Emax cell) (hD2 receptors): neutral
Ki (D2 receptors [15]; CHO-D2 membranes, [3H]N-methylspiperone, read-out: D2 Binding Ki ± SEM): 75 ± 12 nM
